From US20090023738A1, “DIAMINOPYRIMIDINES AS MODULATORS OF THE EP2 RECEPTOR” (priority 2007, published 2009)
pIC50: −log10 of the molar value.

Legend:
[1] = molecular target: T1, EP2 subtype of the human PGE2 receptor (Homo sapiens, UniProt P43116); test: cellular cAMP agonism assay; type: cell-based; details: without PGE2
T1 construct: host or cells: cells in a cell culture plate
Description: (§1) The binding of PGE2 to the EP2 subtype of the human PGE2 receptor induces activation of membrane-associated adenylate cyclases and leads to the formation of cAMP. In the presence of the phosphodiesterase inhibitor IBMX, cAMP which has accumulated due to this stimulation and been released by cell lysis is employed in a competitive detection method. In this assay, the cAMP in the lysate competes with cAMP-XL665 for binding of an Eu cryptate-labelled anti-cAMP antibody.
(§2) The two signals are measured in a suitable measuring instrument with a time lag, i.e. after the background fluorescence has declined.
1.2.2 Agonism Assay (Data for Each Well of a 384-Well Plate): […]
After incubation at room temperature (RT; volume: 15 μl) for 60 minutes, the reaction is then stopped by adding 5 μl of lysis buffer and incubated at RT for a further 20 min (volume: 20 μl). The cell lysate is then transferred into a measuring plate and measured in accordance with the manufacturer's information (cyclic AMP kit Cisbio International # 62AMPPEC).

[2] = molecular target: T1, EP2 subtype of the human PGE2 receptor; test: cAMP antagonism assay (EP2 receptor signal, HTRF cAMP detection); type: cell-based; details: in the presence of the agonist PGE2
Source text: 1. Detection of the Antagonism of the Human Prostaglandin E2 (Subtype EP2 Receptor Signal
as §1, §2
1.2.1 Antagonism Assay (Data for Each Well of a 384-Well plate): […]
After preincubation at room temperature (RT) for 30 minutes, 5 μl of a 4×PGE2 solution (11 nM) are added, and incubation is carried out in the presence of the agonist at RT for a further 60 min (volume: 20 μl) before the reaction is then stopped by adding 5 μl of lysis buffer and incubated at RT for a further 20 min (volume: ˜25 μl). The cell lysate is then transferred into a measuring plate and measured in accordance with the manufacturer's information (cyclic AMP kit Cisbio International # 62AMPPEC).

T1 sequence (P43116 whole entry): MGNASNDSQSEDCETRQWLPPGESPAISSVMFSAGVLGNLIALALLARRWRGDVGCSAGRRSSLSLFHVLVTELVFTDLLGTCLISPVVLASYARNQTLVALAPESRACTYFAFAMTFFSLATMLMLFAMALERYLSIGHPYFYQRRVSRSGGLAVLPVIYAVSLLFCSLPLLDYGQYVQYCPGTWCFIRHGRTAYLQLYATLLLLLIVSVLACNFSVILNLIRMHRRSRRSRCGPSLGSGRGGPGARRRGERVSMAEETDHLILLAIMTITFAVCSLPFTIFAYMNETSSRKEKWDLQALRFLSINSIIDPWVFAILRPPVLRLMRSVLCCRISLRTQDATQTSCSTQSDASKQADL

Compound | effect in the cellular agonism test [1] | pIC50 [2]
Cc1[nH]c2c(F)ccc(C)c2c1CCNc1cc(NCc2cccnc2)ncn1 [Example 6, N-[2-(7-Fluoro-2,4-dimethyl-1H-indol-3-yl)ethyl]-N′-pyridin-3-ylmethylpyrimidine-4,6-diamine] | no inhibition | 5.80
Cc1[nH]c2c(F)ccc(C)c2c1CCNc1cc(NCc2ccccc2-c2ccccc2)ncn1 [Example 17, N-Biphenyl-2-ylmethyl-N′-[2-(7-fluoro-2,4-dimethyl-1H-indol-3-yl)ethyl]-pyrimidine-4,6-diamine] | – | 5.85
